{"source": "patent US7807662B2", "about": "“Platinum IV complex inhibitor” (University of South Florida, priority 2004, dated 2010)", "key": {"[1]": {"biological_target": "T1, Stat1 (Homo sapiens, UniProt P42224)", "T1 construct": "nuclear extracts of equal total protein containing active Stat1, Stat3 and Stat5 were pre-incubated with different concentrations of IS3 295; endogenous in cells; host or cells: nuclear extracts", "T1 sequence (P42224 2-750 limits assumed)": "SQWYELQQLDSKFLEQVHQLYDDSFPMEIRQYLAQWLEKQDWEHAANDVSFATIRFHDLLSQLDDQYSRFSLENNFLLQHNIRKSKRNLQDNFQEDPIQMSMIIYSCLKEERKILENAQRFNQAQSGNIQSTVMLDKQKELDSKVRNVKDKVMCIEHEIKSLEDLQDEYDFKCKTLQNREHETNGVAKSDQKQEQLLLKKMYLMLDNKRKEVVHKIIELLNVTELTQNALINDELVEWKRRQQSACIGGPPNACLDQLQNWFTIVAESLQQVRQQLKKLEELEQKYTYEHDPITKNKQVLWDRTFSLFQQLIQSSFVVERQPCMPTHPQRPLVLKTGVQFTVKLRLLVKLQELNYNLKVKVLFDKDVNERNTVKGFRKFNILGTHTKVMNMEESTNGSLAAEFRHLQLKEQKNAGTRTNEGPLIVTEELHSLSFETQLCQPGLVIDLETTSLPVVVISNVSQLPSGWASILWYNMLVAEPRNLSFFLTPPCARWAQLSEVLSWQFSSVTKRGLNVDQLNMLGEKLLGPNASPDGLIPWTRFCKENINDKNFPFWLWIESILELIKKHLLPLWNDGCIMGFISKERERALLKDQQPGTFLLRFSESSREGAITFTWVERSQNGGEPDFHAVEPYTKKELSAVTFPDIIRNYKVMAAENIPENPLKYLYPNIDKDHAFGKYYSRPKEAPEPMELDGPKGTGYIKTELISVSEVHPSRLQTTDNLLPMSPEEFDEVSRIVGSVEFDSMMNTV", "experiment": "In vitro DNA-binding activity assay with EMSA, Stat1", "assay_type": "biochemical", "settings": "hSIE probe, pre-incubation with compound", "procedure": "(§1) Nuclear extract preparation and gel shift assays—Nuclear extract preparation from v-Src-transformed fibroblasts (NIH3T3/v-Src) or tumor cell lines and electrophoretic mobility shift assay were carried out as previously described (11, 13, 37). The ^32P-labeled oligonucleotide probes used were hSIE (high affinity sis-inducible element, m67 variant, 5′-[…]) (SEQ ID NO:1) that bound Stat1 and Stat3 (13, 45) and MGFe (mammary gland factor element from the bovine β-casein gene promoter, 5′-AGATTTCTAGGAATTCAA) (SEQ ID NO:2) for Stat1 and Stat5 binding (46, 47). Except where indicated, inhibitor compound was pre-incubated with the nuclear extract for 30 minutes at room temperature prior to incubation with radiolabeled probe.\n(§2) Compounds from the NCI diversity set were evaluated for inhibition of Stat3 signaling in in vitro DNA-binding activity assay with analysis of electrophoretic mobility shift assay (EMSA). A platinum (IV) complex, IS3 295 (NSC 295558) (FIG. 1E), was identified as potent inhibitor of Stat3, which was further characterized in a number of assays for its anti-Stat3 property. […]"}, "[2]": {"biological_target": "T2, Stat3 (Homo sapiens, UniProt P40763)", "T2 construct": "nuclear extracts of equal total protein containing active Stat1, Stat3 and Stat5 were pre-incubated with different concentrations of IS3 295; endogenous in cells; host or cells: nuclear extracts", "T2 sequence (P40763 2-770 limits assumed, species assumed)": "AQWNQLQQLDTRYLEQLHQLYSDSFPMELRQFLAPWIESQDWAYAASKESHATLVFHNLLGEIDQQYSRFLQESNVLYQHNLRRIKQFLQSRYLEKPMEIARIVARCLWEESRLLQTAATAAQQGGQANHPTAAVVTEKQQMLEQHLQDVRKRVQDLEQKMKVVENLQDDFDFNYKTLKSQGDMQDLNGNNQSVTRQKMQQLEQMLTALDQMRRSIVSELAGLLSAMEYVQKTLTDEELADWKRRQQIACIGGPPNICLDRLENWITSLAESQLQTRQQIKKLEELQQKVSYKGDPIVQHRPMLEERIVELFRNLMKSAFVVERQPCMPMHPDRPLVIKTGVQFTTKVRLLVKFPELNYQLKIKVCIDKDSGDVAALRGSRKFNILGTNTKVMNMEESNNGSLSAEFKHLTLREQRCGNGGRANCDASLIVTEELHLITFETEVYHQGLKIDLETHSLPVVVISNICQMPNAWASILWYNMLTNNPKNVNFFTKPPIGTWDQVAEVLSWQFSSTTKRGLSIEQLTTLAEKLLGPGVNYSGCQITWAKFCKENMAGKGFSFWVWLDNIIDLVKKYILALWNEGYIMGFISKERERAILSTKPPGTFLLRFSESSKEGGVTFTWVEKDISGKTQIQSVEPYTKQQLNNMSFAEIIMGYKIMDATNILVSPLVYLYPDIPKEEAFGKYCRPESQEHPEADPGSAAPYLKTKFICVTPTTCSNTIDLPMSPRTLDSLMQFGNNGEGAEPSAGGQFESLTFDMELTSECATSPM", "settings": "from reference 35; cited from earlier work"}, "[3]": {"test_system": "Stat5", "experiment": "In vitro DNA-binding activity assay with EMSA, Stat5", "assay_type": "biochemical", "settings": "MGFe probe", "procedure": "as §1, §2"}, "[4]": {"biological_target": "E2F1 (Homo sapiens, UniProt Q01094)", "sequence (Q01094 whole entry, species assumed)": "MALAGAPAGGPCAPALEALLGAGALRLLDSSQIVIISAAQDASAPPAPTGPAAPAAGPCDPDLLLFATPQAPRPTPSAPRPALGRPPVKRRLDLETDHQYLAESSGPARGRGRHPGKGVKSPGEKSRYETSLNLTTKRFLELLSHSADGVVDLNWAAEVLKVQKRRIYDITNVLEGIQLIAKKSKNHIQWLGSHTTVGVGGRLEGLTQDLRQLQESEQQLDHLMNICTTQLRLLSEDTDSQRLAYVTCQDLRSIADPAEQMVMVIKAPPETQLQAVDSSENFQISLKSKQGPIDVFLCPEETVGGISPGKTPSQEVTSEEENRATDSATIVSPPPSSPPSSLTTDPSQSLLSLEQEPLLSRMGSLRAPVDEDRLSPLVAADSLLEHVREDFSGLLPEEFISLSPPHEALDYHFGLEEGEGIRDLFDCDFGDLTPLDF", "experiment": "In vitro DNA-binding activity assay with EMSA, E2F1 (control)", "assay_type": "biochemical", "settings": "DHFR promoter sequence probe", "source_text": "In control studies, the effect of IS3 295 was investigated on the DNA-binding activity of E2F1 that was unrelated to Stat proteins."}, "[5]": {"biological_target": "T2, Stat3", "experiment": "In vitro DNA-binding activity assay with EMSA, Stat3", "assay_type": "biochemical", "settings": "hSIE probe, pre-incubation with compound", "procedure": "as §1, §2"}}}
{"smiles": "N.N.[Cl][Pt][Cl]", "note": "[cisplatin, reference compound]", "values": [{"measurement": "level of DNA-binding activity of Stat1", "setting": "[1]", "value": "no detectable effect"}, {"measurement": "effect on Stat3 activity", "setting": "[2]", "value": "no effect"}, {"measurement": "level of DNA-binding activity of Stat5:Stat5 dimers", "setting": "[3]", "value": "no detectable effect"}, {"measurement": "E2F1 DNA-binding activity", "setting": "[4]", "value": "no detectable effect"}, {"measurement": "level of DNA-binding activity of Stat3", "setting": "[5]", "value": "no detectable effect"}]}
